Reference: patent US12053459B2, “CDK2 inhibitors and methods of using the same” (Cedilla Therapeutics, Inc., priority 2021, dated 2024)

What was measured:
CDK2/Cyclin E1(14-475) = CDK2/Cyclin E1(14-475) (Homo sapiens, UniProt P24941); assay: Caliper LabChip EZ Reader mobility shift assay, inhibition of CDK2/Cyclin E1 activity; format: biochemical; conditions: class symbols A-D
Procedure: Inhibition of CDK2/Cyclin E1 activity in the presence of compounds of the present disclosure was evaluated using a Caliper LabChip® EZ Reader mobility shift assay. In the assay, activated CDK2/Cyclin E1 catalyzes the phosphorylation of a fluorescently tagged peptide 5-FAM-QSPKKG-CONH2 (PerkinElmer, FL Peptide 18) which induces a difference in capillary electrophoresis mobility. The peptide substrate and product were measured, and the conversion ratio was used to determine the inhibition (as % activity and IC50 values) of CDK2/Cyclin E1. Reactions contained 50 mM HEPES pH 7.5, 10 mM MgCl2, 1 mM EDTA, 2 mM DTT, 0.01% Brij35, 0.5 mg/mL BSA, 0.1% DMSO, 2.5 nM CDK2/Cyclin E1(14-475), 100 μM ATP, and 1.5 μM fluorescent peptide substrate.
Dose titrations of inhibitors in 100% DMSO were combined with 3.25 nM CDK2/Cyclin E1(14-475) and 130 μM of ATP in reaction buffer. The mixtures were incubated for 30 minutes before the addition of fluorescent peptide substrate to initiate the kinase reaction. The final conditions were 2.5 nM CDK2/Cyclin E1(14-475), 100 μM ATP, and 1.5 μM fluorescent peptide. The reactions were stopped after 100 minutes with the addition of EDTA (6 mM final EDTA concentration). The stopped reactions were analyzed on a Caliper LabChip® EZ Reader II. The conversion ratios were normalized to yield % activity, plotted against compound concentration, and fit to a four-parameter equation to determine the IC50 for each compound.

Kuramochi cells = assay: BrdU cell proliferation assay (colorimetric ELISA), Kuramochi cells; format: cell-based; conditions: class symbols A-D
Procedure: A BrdU assay was used as a measure of proliferation based on the DNA replication process of proliferating cells. BrdU, a pyrimidine analog, is added to the cell culture and incorporated into the DNA of proliferating cells. The presence of the BrdU analog was then measured through a colorimetric ELISA. After fixation and permeabilization of cells, peroxidase-conjugated antibody recognizing BrdU is added and allowed to incubate, followed by thorough washing to remove unbound antibody. In order to quantify the amount of bound antibody, peroxidase substrate is added and produces a color that can be measured at 450 nm.
On day −1, Kuramochi cells (Sekisui XenoTech JCRB0098) were seeded at 2,000 cells/well in columns 2-12 of a 96 well plate (Corning, CLS3596) in 150 uL media and allowed to adhere overnight at 37 degree with 5% CO2. In order to assess specificity of the compounds, Kuramochi RB^KO cells were also plated and treated, as RB^KO cells were not expected to show a proliferative response to CCNE/CDK specific inhibitors.
On day 0, the source plate was prepared by adding 10 mM compounds and performing 3-fold serial dilutions for a 4-point dose response of each compound. Using a multichannel pipette, 2 uL of the contents of the source plate were stamped into an intermediate plate with 500 uL of RPMI 1640 Media, GlutaMAX Supplement (Life Technologies, 61870127) in each well of a Nunc 96 DeepWell™ plate, non-treated 96 DeepWell plate, 2 mL/well, sterile, natural, 60/cs (Sigma Z717274) and mixed thoroughly. 50 uL from row A of this intermediate plate were added to rows A-H of one plate of previously seeded Kuramochi cells, and each subsequent row of the intermediate plate was added to a full plate of cells.
On day 4, the plates were developed using the BrdU ELISA Cell Proliferation Assay according to manufacturer's instructions (Roche, 11647229001). Briefly, BrdU was diluted 1:100 in Gibco®, Opti-MEM® and 20 μL/well was added, shaken for 10 minutes at 350 rpm, and then returned to the incubator for 1 hour. Following incubation, the medium was discarded, and the cells were fixed by adding 200 μL of Fix/Denature solution. The anti-BrdU peroxidase antibody was diluted 1:1000 in OptiMEM, added at 100 μL/well, and incubated while shaking (350 rpm) for one hour. Three washes with PBS were performed to remove any unbound antibody, followed by the addition of 100 μL of substrate solution to each well. […] was then added to halt the reaction, and plates were read out using an Envision spectrophotometer (Perkin Elmer) set to read 450 nm absorbance. Background absorbance values from empty wells were subtracted from all samples and then normalized to DMSO treated wells.

Row | SMILES | IC50 (CDK2/Cyclin E1(14-475)) [µM] | IC50 (Kuramochi cells) [µM]
1 | COc1cc(C(=O)N2CC3CN(C(=O)Cc4c[nH]c5cc(Cl)ccc45)CC(C(=O)N[C@@H](CCCc4cccc(O)c4)C(=O)NCCCCCN)C3C2)ccc1OC(C)C (single isomer, unassigned) [I-258] | > 10 | > 10
2 | COc1cc(C(=O)N2CC3CN(C(=O)Cc4c[nH]c5cc(Cl)ccc45)CC(C(=O)N[C@H](C(=O)NCCCCCNC(=O)OC(C)(C)C)C(C)OCc4ccccc4)C3C2)ccc1OC(C)C (single isomer, unassigned) [I-259] | ≤ 0.5 | 0.5 to 5
3 | COc1cc(C(=O)N2CC3CN(C(=O)Cc4c[nH]c5cc(Cl)ccc45)CC(C(=O)N[C@H](C(=O)NCCCCCNC(=O)OC(C)(C)C)C(C)OCc4ccccc4)C3C2)ccc1OC(C)C (single isomer, unassigned) [I-260] | 0.5 to 5 | > 10
4 | CNC(=O)[C@H](CCCc1ccccc1)NC(=O)C1CN(C(=O)Cc2c[nH]c3cc(Cl)ccc23)CC2CN(C(=O)c3ccc4oc(C)cc4c3)CC21 (stereo partly shown) [I-3] | > 10 | > 10
5 | CNC(=O)[C@H](CCCc1ccccc1)NC(=O)C1CN(C(=O)Cc2c[nH]c3cc(Cl)ccc23)CC2CN(C(=O)c3ccc(OC)cc3)CC21 (stereo partly shown) [I-5] | > 10 | > 10
6 | CNC(=O)[C@H](CCCc1ccccc1)NC(=O)C1CN(C(=O)Cc2c[nH]c3cc(Cl)ccc23)CC2CN(C(=O)c3ccc(OC4CC4)cc3)CC21 (stereo partly shown) [I-6] | 0.5 to 5 | > 10
7 | CNC(=O)[C@H](CCCc1ccccc1)NC(=O)C1CN(C(=O)Cc2c[nH]c3cc(Cl)ccc23)CC2CN(C(=O)c3ccc(OCC(C)C)cc3)CC21 (stereo partly shown) [I-7] | 0.5 to 5 | 5 to 10
8 | CNC(=O)[C@H](CCCc1ccccc1)NC(=O)C1CN(C(=O)Cc2c[nH]c3cc(Cl)ccc23)CC2CN(C(=O)c3ccc4[nH]ncc4c3)CC21 (stereo partly shown) [I-8] | > 10 | > 10
9 | CNC(=O)[C@H](CCCc1ccccc1)NC(=O)C1CN(C(=O)Cc2c[nH]c3cc(Cl)ccc23)CC2CN(C(=O)c3ccc(OCCC4CC4)c(OC)c3)CC21 (stereo partly shown) [I-9] | 5 to 10 | > 10
10 | CNC(=O)[C@H](CCCc1ccccc1)NC(=O)C1CN(C(=O)Cc2c[nH]c3cc(Cl)ccc23)CC2CN(C(=O)c3cnc4ccccc4c3)CC21 (stereo partly shown) [I-10] | > 10 | > 10
11 | CNC(=O)[C@H](CCCc1ccccc1)NC(=O)C1CN(C(=O)Cc2c[nH]c3cc(Cl)ccc23)CC2CN(C(=O)c3cccc(-c4ccccc4)c3)CC21 (stereo partly shown) [I-11] | > 10 | > 10
12 | CNC(=O)[C@H](CCCc1ccccc1)NC(=O)C1CN(C(=O)Cc2c[nH]c3cc(Cl)ccc23)CC2CN(C(=O)c3nc4ccccc4[nH]3)CC21 (stereo partly shown) [I-12] | > 10 | > 10
13 | CNC(=O)[C@H](CCCc1ccccc1)NC(=O)C1CN(C(=O)Cc2c[nH]c3cc(Cl)ccc23)CC2CN(C(=O)c3ccc(-c4ccncc4)cc3)CC21 (stereo partly shown) [I-14] | > 10 | > 10
14 | CNC(=O)[C@H](CCCc1ccccc1)NC(=O)C1CN(C(=O)Cc2c[nH]c3cc(Cl)ccc23)CC2CN(C(=O)c3ccc(C#N)cn3)CC21 (stereo partly shown) [I-15] | > 10 | > 10
15 | CNC(=O)[C@H](CCCc1ccccc1)NC(=O)C1CN(C(=O)Cc2c[nH]c3cc(Cl)ccc23)CC2CN(C(=O)c3cnc(OC)cn3)CC21 (stereo partly shown) [I-16] | > 10 | > 10
16 | CNC(=O)[C@H](CCCc1ccccc1)NC(=O)C1CN(C(=O)Cc2c[nH]c3cc(Cl)ccc23)CC2CN(C(=O)c3ccc4cnccc4c3)CC21 (stereo partly shown) [I-18] | > 10 | > 10
17 | CNC(=O)[C@H](CCCc1ccccc1)NC(=O)C1CN(C(=O)Cc2c[nH]c3cc(Cl)ccc23)CC2CN(C(=O)c3cccc(CO)n3)CC21 (stereo partly shown) [I-20] | > 10 | > 10
18 | CNC(=O)[C@H](CCCc1ccccc1)NC(=O)C1CN(C(=O)Cc2c[nH]c3cc(Cl)ccc23)CC2CN(C(=O)c3ccc(OC)nn3)CC21 (stereo partly shown) [I-21] | > 10 | > 10

Row | SMILES | IC50 (CDK2/Cyclin E1(14-475)) [µM] | IC50 (Kuramochi cells) [µM]
19 | CNC(=O)[C@H](CCCc1ccccc1)NC(=O)C1CN(C(=O)Cc2c[nH]c3cc(Cl)ccc23)CC2CN(C(=O)c3ccc(OC(C)C)c(Cl)c3)CC21 (stereo partly shown) [I-24] | > 10 | > 10
20 | CNC(=O)[C@H](CCCc1ccccc1)NC(=O)C1CN(C(=O)Cc2c[nH]c3cc(Cl)ccc23)CC2CN(C(=O)c3ccc(OC(F)(F)F)cc3)CC21 (stereo partly shown) [I-25] | 0.5 to 5 | > 10
21 | CNC(=O)[C@H](CCCc1ccccc1)NC(=O)C1CN(C(=O)Cc2c[nH]c3cc(Cl)ccc23)CC2CN(C(=O)c3cc(-c4ccccc4)nn3C)CC21 (stereo partly shown) [I-26] | 5 to 10 | > 10
22 | CNC(=O)[C@H](CCCc1ccccc1)NC(=O)C1CN(C(=O)Cc2c[nH]c3cc(Cl)ccc23)CC2CN(C(=O)c3cn(-c4ccccc4)cn3)CC21 (stereo partly shown) [I-27] | > 10 | > 10
23 | CNC(=O)[C@H](CCCc1ccccc1)NC(=O)C1CN(C(=O)Cc2c[nH]c3cc(Cl)ccc23)CC2CN(C(=O)c3n[nH]c4ccccc34)CC21 (stereo partly shown) [I-28] | > 10 | > 10
24 | CNC(=O)[C@H](CCCc1ccccc1)NC(=O)C1CN(C(=O)Cc2c[nH]c3cc(Cl)ccc23)CC2CN(C(=O)c3cc(C4CC4)[nH]n3)CC21 (stereo partly shown) [I-30] | > 10 | > 10
25 | CNC(=O)[C@H](CCCc1ccccc1)NC(=O)C1CN(C(=O)Cc2c[nH]c3cc(Cl)ccc23)CC2CN(C(=O)c3ccc(S(N)(=O)=O)c(OC)c3)CC21 (stereo partly shown) [I-31] | > 10 | > 10
26 | CNC(=O)[C@H](CCCc1ccccc1)NC(=O)C1CN(C(=O)Cc2c[nH]c3cc(Cl)ccc23)CC2CN(C(=O)c3ccc(OC)c(O)c3)CC21 (stereo partly shown) [I-34] | 5 to 10 | > 10
27 | CNC(=O)[C@H](CCCc1ccccc1)NC(=O)C1CN(C(=O)Cc2c[nH]c3cc(Cl)ccc23)CC2CN(C(=O)c3cc4ccccc4cn3)CC21 (stereo partly shown) [I-37] | > 10 | > 10
28 | CNC(=O)[C@H](CCCc1ccccc1)NC(=O)C1CN(C(=O)Cc2c[nH]c3cc(Cl)ccc23)CC2CN(C(=O)c3cc4cc(C)ccc4[nH]3)CC21 (stereo partly shown) [I-38] | > 10 | > 10
29 | CNC(=O)[C@H](CCCc1ccccc1)NC(=O)C1CN(C(=O)Cc2c[nH]c3cc(Cl)ccc23)CC2CN(C(=O)c3cc(C)n(C)n3)CC21 (stereo partly shown) [I-39] | > 10 | > 10
30 | CNC(=O)[C@H](CCCc1ccccc1)NC(=O)C1CN(C(=O)Cc2c[nH]c3cc(Cl)ccc23)CC2CN(C(=O)c3cn4ccncc4n3)CC21 (stereo partly shown) [I-40] | > 10 | > 10
31 | CCOc1cnc(C(=O)N2CC3CN(C(=O)Cc4c[nH]c5cc(Cl)ccc45)CC(C(=O)N[C@@H](CCCc4ccccc4)C(=O)NC)C3C2)cn1 (stereo partly shown) [I-41] | > 10 | > 10
32 | CNC(=O)[C@H](CCCc1ccccc1)NC(=O)C1CN(C(=O)Cc2c[nH]c3cc(Cl)ccc23)CC2CN(C(=O)c3ccc4cccn4c3)CC21 (stereo partly shown) [I-43] | > 10 | > 10
33 | CNC(=O)[C@H](CCCc1ccccc1)NC(=O)C1CN(C(=O)Cc2c[nH]c3cc(Cl)ccc23)CC2CN(C(=O)c3cnc(C4CC4)nc3)CC21 (stereo partly shown) [I-44] | > 10 | > 10
34 | CNC(=O)[C@H](CCCc1ccccc1)NC(=O)C1CN(C(=O)Cc2c[nH]c3cc(Cl)ccc23)CC2CN(C(=O)c3ccc4c(c3)CNC4=O)CC21 (stereo partly shown) [I-45] | > 10 | > 10
35 | CNC(=O)[C@H](CCCc1ccccc1)NC(=O)C1CN(C(=O)Cc2c[nH]c3cc(Cl)ccc23)CC2CN(C(=O)c3ccc(OC(C)C)c(F)c3)CC21 (stereo partly shown) [I-46] | 0.5 to 5 | > 10
